Consider two compounds from US12486334B2, “Chemically controlled monoclonal antibody target engagement” (The Regents of the University of California, priority 2019, dated 2025).

Assay [1] concerns KRas G12C cell lines (H358, MiaPaca-2, SW1573). Put plainly: Flow cytometry of cell-surface accessible ARS-1620 with P1A4. It counts as cell-based. To be noted: several KRas G12C cell lines compared to a wild type KRas cell line. The source says:
Low background staining observed in the presence of DMSO treatment confirms that the interaction is ARS-1620 dependent.

Another assay relates to H358 (G12C+) cell lysate. Put plainly: Western blot of cell lysate with P1A4 IgG. The class given is binding. Conditions: treated H358 (G12C+) cells.
Assay [2] deals with ARS-1620 labeled peptides eluted from KRas G12C cells. Nature of the assay: Covalent capture ELISA of MHC eluted peptides (mild acid elution). It counts as cell-based. Conditions: ARS-1620 treated KRas G12C samples, stained with P1A4 IgG. From the text:
(§1) To test whether the cell surface exposed ARS-1620 was pMHC associated, a proximity ligation assay was used in which fluorescent signal is indicative of colocalization of ARS-1620 and MHC (FIG. 5). […] To test whether this colocalization was due to direct covalent reaction with MHC molecules already on the cell surface or due to traditional loading of intracellular MHCs with covalently modified intracellular peptides, a covalent capture ELISA was used to detect ARS-1620 labeled peptides eluted from cells by mild acid elution. A short acid treatment dissociates peptides from the pMHC on living cells, allowing capture of the presented peptides in the acidic buffer supernatant and subsequent covalent immobilization via their N-terminus for ELISA. […] The eluted peptides and peptides obtained from MHC immunoprecipitation are analyzed by mass spectrometry to precisely identify haptenized peptide sequences.

Assay [3] has as its system T-cells of PBMCs co-incubated with MiaPaca-2 (KRas G12C) cells. Put plainly: T cell activation (CD3/CD69) by flow cytometry after 72 hr co-incubation. It counts as cell-based. To be noted: ARS1620, No Ab. From the text:
MiaPaca-2 (KRas G12C) cells were pulsed with either DMSO or ARS-1620 in order to label proteins without exerting a direct pharmacological effect on the health of the cells. […] Following the 72 hr treatment, cells were stained for T-cell receptors (CD3) and T-cell activation (CD69) and analyzed by flow cytometry.

In assay [4] the test system is colocalization of ARS-1620 and MHC in a KRas G12C cell line. Nature of the assay: Proximity ligation assay (PLA). It counts as cell-based. Conditions: not with atropisomer or DMSO.
Excerpt: FIG. 5 is a schematic of the proximity ligation assay (PLA) for detecting colocalization of two antigens. […] Secondary antibodies are directed against the Fc region of the human or murine antibodies, and are attached to complimentary oligos used to assemble a complementary oligo for rolling circle amplification (RCA). Amplification only occurs if the two antigens are colocalized, and amplified oligos are detected with complimentary, fluorogenic oligos.
as §1

For a further assay, the target named is wild type KRas (Homo sapiens, UniProt P01116). Conditions: Visscher et al. 2016; cited from earlier work.
A further assay deals with KRas G12C (Homo sapiens, UniProt P01116, G12C). To be noted: Visscher et al. 2016; cited from earlier work.
Assay [5] deals with human H358 (G12C+) cells xenografted tumors. Put plainly: H358 xenograft murine model, P1A4 IgG staining of harvested tumors by flow cytometry. The class given is in vivo, Mice. The protocol: In order to test whether ARS-1620 is accessible and targetable on the surface of treated cells in more complex systems, an H358 xenograft murine model was utilized. Mice were xenografted with human H358 (G12C+) cells and treated with either DMSO (placebo), ARS-1620 (1× at 200 mg/kg, or 3× at 200 mg/kg daily), or AMG-510 (1× at 100 mg/kg).

As to `C=CC(=O)N1CCN(c2ncnc3c(F)c(-c4c(O)cccc4F)c(Cl)cc23)CC1` (atropisomer, axis not shown) [ARS-1620], the “increase in cell surface ARS-1620” value in assay [1] was found to be 10 ×. Also, in the assay with H358 (G12C+) cell lysate, the “off-targets of ARS-1620 detected by western blot with P1A4” value is listed as “additional off-targets”. The “ARS-1620 haptenized peptides in MHC eluted peptides” value in assay [2] is “readily detected”. For the same compound, the “% CD3 + CD69+” value in assay [3] stood at 2.42%. Also, the “fluorescent signal (colocalization of ARS-1620 with MHC)” value in assay [4] is listed as “detectable”. At wild type KRas, the “binding to wild type KRas lacking acquired cysteine” value is on record as “no appreciable binding”. In addition, the “specificity for KRas G12C over other cellular proteins” value on KRas G12C is “high specificity”. Moreover, the “P1A4 IgG staining of xenografted tumor cells” value in assay [5] (ARS-1620 1× at 200 mg/kg or 3× at 200 mg/kg daily) is reported as “P1A4+ cell population emerged”.
As to `C=CC(=O)N1CCN(c2nc(=O)n(-c3c(C)ccnc3C(C)C)c3nc(-c4c(O)cccc4F)c(F)cc23)[C@@H](C)C1` [AMG-510], the “P1A4 IgG staining of xenografted tumor cells” value in assay [5] (AMG-510 1× at 100 mg/kg) was “no P1A4 staining”.
